From ChEMBL document CHEMBL1201862, “PubChem BioAssay data set” (2004)
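Step 1: Grow cells in 96-well plates. Step 2: Expose to compound for 48 hours at 5 concentrations. Step 3: Interpolate endpoints linearly; if unreached, use highest concentration. The concentration for 50% growth inhibition is given as GI50.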 Activity calls are given as the source filed them. Rule as the data show it: active = GI50 up to about 1.1 µM and inactive = higher.

Tests used:
Assay in all cases: inhibition of tumour cell growth, NCI panel, 48 h
DLD-1 = system: DLD-1
NCI-H226 = system: NCI-H226
SK-OV-3 = system: SK-OV-3
M19-MEL = system: M19-MEL
LOX IMVI = system: LOX IMVI
KM-20L2 = system: KM-20L2
SNB-78 = system: SNB-78
ACHN = system: ACHN
SF-268 = system: SF-268
HCT-15 = system: HCT-15
SK-MEL-2 = system: SK-MEL-2
SW-620 = system: SW-620
A549 = system: A549
RXF 393 = system: RXF 393
DMS-273 = system: DMS-273
OVCAR-3 = system: OVCAR-3
DMS-114 = system: DMS-114
XF498 = system: XF498
Hs-578T = system: Hs-578T
MDA-MB-231 = system: MDA-MB-231

| Structure (SMILES) | GI50 (DLD-1) | GI50 (NCI-H226) | GI50 (SK-OV-3) | GI50 (M19-MEL) | GI50 (LOX IMVI) | GI50 (KM-20L2) | GI50 (SNB-78) | GI50 (ACHN) | GI50 (SF-268) | GI50 (HCT-15) | GI50 (SK-MEL-2) | GI50 (SW-620) | GI50 (A549) | GI50 (RXF 393) | GI50 (DMS-273) | GI50 (OVCAR-3) | GI50 (DMS-114) | GI50 (XF498) | GI50 (Hs-578T) | GI50 (MDA-MB-231) |
| --- | --- | --- | --- | --- | --- | --- | --- | --- | --- | --- | --- | --- | --- | --- | --- | --- | --- | --- | --- | --- |
| COc1ccc(C2[C@H]3C(=O)N(c4ccc(Cc5ccc(N6C(=O)[C@@H]7ON(c8ccccc8)C(c8ccc(OC)cc8)[C@@H]7C6=O)cc5)cc4)C(=O)[C@H]3ON2c2ccccc2)cc1 (some centres not stated) | > 100 µM (inactive) | > 100 µM (inactive) | > 100 µM (inactive) | > 100 µM (inactive) | > 100 µM (inactive) | > 100 µM (inactive) | > 100 µM (inactive) | > 100 µM (inactive) | > 100 µM (inactive) | > 100 µM | > 100 µM (inactive) | > 100 µM (inactive) | > 100 µM (inactive) | > 100 µM (inactive) | > 100 µM (inactive) | > 100 µM (inactive) |  |  |  |  |
| C[N+](C)(C)CC(=O)N/N=C(/Cc1nc2c3c(ccc2nc1O)C(=O)c1ccccc1C3=O)C(=O)Nc1ccc(Cl)c(Cl)c1 | 17.9 µM (inactive) |  | 23.9 µM (inactive) | 38.2 µM (inactive) |  | > 100 µM (inactive) |  | 24 µM (inactive) | 26 µM (inactive) |  | 91.2 µM (inactive) | 35.2 µM (inactive) | 42.7 µM (inactive) | 23.2 µM (inactive) |  | 30.2 µM (inactive) | 27 µM (inactive) |  |  |  |
| Cc1nc(-c2nc(C)c(C(=O)/C=C/c3ccc([N+](=O)[O-])cc3)s2)sc1C(=O)/C=C/c1ccc([N+](=O)[O-])cc1 | > 100 µM (inactive) | > 100 µM (inactive) | > 100 µM (inactive) | > 100 µM (inactive) | > 100 µM (inactive) | > 100 µM (inactive) | > 100 µM (inactive) | > 100 µM (inactive) | > 100 µM (inactive) | > 100 µM | > 100 µM (inactive) | > 100 µM (inactive) | > 100 µM (inactive) | > 100 µM (inactive) |  | > 100 µM (inactive) | > 100 µM (inactive) |  |  |  |
| Cc1ccc(C2=NN(C)COC2C(F)(F)F)cc1 (configuration not stated) | > 100 µM (inactive) | > 100 µM (inactive) | > 100 µM (inactive) | > 100 µM (inactive) |  | > 100 µM (inactive) | > 100 µM (inactive) | > 100 µM (inactive) | > 100 µM (inactive) | > 100 µM | > 100 µM (inactive) | > 100 µM (inactive) | > 100 µM (inactive) | > 100 µM (inactive) | > 100 µM (inactive) | > 100 µM (inactive) | > 100 µM (inactive) |  |  |  |
| COc1ccc(CC2(Cc3ccc(OC)cc3)CCOC2=O)cc1 | > 100 µM (inactive) | > 100 µM (inactive) | > 100 µM (inactive) | > 100 µM (inactive) |  |  |  | 94.8 µM (inactive) | 45.8 µM (inactive) |  | 94.8 µM (inactive) | > 100 µM (inactive) | > 100 µM (inactive) |  |  | > 100 µM (inactive) | 23.9 µM (inactive) | 0.582 µM (active) |  |  |
| N=S(c1ccccc1[N+](=O)[O-])c1ccccc1[N+](=O)[O-] |  | 4.79 µM (inactive) | 8.63 µM (inactive) | 3.3 µM (inactive) | 0.76 µM (active) |  | 2.68 µM (inactive) | 1.22 µM (inactive) | 4.73 µM (inactive) | 0.912 µM | 3.9 µM (inactive) |  | 4.45 µM (inactive) | 2.69 µM (inactive) | 2.16 µM (inactive) | 0.839 µM (active) |  |  | 4.68 µM (inactive) | 1.77 µM (inactive) |
| COC(=O)CCCN(C)c1nc(N)n[nH]1 | > 100 µM (inactive) | > 100 µM (inactive) | > 100 µM (inactive) | > 100 µM (inactive) | > 100 µM (inactive) | > 100 µM (inactive) | > 100 µM (inactive) | > 100 µM (inactive) | > 100 µM (inactive) | > 100 µM |  | > 100 µM (inactive) | > 100 µM (inactive) | > 100 µM (inactive) | > 100 µM (inactive) | > 100 µM (inactive) | > 100 µM (inactive) |  |  |  |
| C/C(=N\NC(=N)N)C(CN1CCCCC1)C(c1ccccc1)c1c(O)c2ccccc2oc1=O (configuration not stated) | > 100 µM (inactive) | > 100 µM (inactive) | > 100 µM (inactive) | > 100 µM (inactive) | > 100 µM (inactive) | > 100 µM (inactive) |  | > 100 µM (inactive) | > 100 µM (inactive) | > 100 µM | > 100 µM (inactive) | > 100 µM (inactive) | > 100 µM (inactive) | > 100 µM (inactive) |  | > 100 µM (inactive) | > 100 µM (inactive) | > 100 µM (inactive) |  |  |
| O=C(Cc1nc2ccccc2c(=O)n1-c1c(Cl)cccc1Cl)c1ccncc1 | 26.7 µM (inactive) | > 10 µM (inactive) | 53.1 µM (inactive) | 20.3 µM (inactive) | > 10 µM (inactive) | 27.5 µM (inactive) | 34.1 µM (inactive) | 17.9 µM (inactive) | 31 µM (inactive) | 24.7 µM | 21.1 µM (inactive) | 36.6 µM (inactive) | 21.4 µM (inactive) | 18.5 µM (inactive) | 19.4 µM (inactive) | 21.3 µM (inactive) | 25.2 µM (inactive) |  |  |  |
| Cc1cc(C)nc(NS(=O)(=O)c2ccc(Nc3c4ccc(Cl)cc4nc4c(C(=O)Nc5ccc(S(=O)(=O)N=C(N)N)cc5)cccc34)cc2)n1 | > 100 µM (inactive) |  | > 100 µM (inactive) | > 100 µM (inactive) | 49.9 µM (inactive) | > 100 µM (inactive) | 39.9 µM (inactive) | 96.6 µM (inactive) | 35.7 µM (inactive) | > 100 µM |  |  |  | 29.4 µM (inactive) |  | 96.6 µM (inactive) | 41.7 µM (inactive) | > 100 µM (inactive) |  |  |
| CCOC(=O)N1CCN(C=S)CC1 | > 100 µM (inactive) |  | > 100 µM (inactive) | > 100 µM (inactive) | > 100 µM (inactive) | > 100 µM (inactive) | > 100 µM (inactive) | > 100 µM (inactive) | > 100 µM (inactive) | > 100 µM | > 100 µM (inactive) | > 100 µM (inactive) | > 100 µM (inactive) | > 100 µM (inactive) | > 100 µM (inactive) | > 100 µM (inactive) | > 100 µM (inactive) |  |  |  |
| C#CCNC(=O)ON1C(=O)CCC1=O | > 100 µM (inactive) |  | > 100 µM (inactive) | > 100 µM (inactive) | > 100 µM (inactive) | > 100 µM (inactive) | > 100 µM (inactive) | > 100 µM (inactive) | > 100 µM (inactive) | > 100 µM | > 100 µM (inactive) | > 100 µM (inactive) | > 100 µM (inactive) | > 100 µM (inactive) | > 100 µM (inactive) | > 100 µM (inactive) |  |  |  |  |
| CC(N)(Cc1c[nH]c2ccccc12)C(=O)O (configuration not stated) |  | > 100 µM (inactive) | > 100 µM (inactive) |  | > 100 µM (inactive) |  |  | > 100 µM (inactive) | > 100 µM (inactive) | > 100 µM | > 100 µM (inactive) | > 100 µM (inactive) | > 100 µM (inactive) | > 100 µM (inactive) |  | > 100 µM (inactive) |  |  | > 100 µM (inactive) | > 100 µM (inactive) |
| CCOC(=O)/C(C(N)=O)=C(O)/C(O)=C(\Br)C(=O)c1ccccc1 |  | 19.5 µM (inactive) | 26.2 µM (inactive) |  | 15.6 µM (inactive) |  |  | 19.1 µM (inactive) | 19.5 µM (inactive) | 18.2 µM | 18.9 µM (inactive) | 9.66 µM (inactive) | 20.4 µM (inactive) | 15.6 µM (inactive) |  | 20.7 µM (inactive) |  |  | 20.4 µM (inactive) | 19.6 µM (inactive) |
| O=C(/C=C/c1ccccc1Cl)c1ccc(Cl)cc1Cl | 17.3 µM (inactive) | 15.7 µM (inactive) | 19.4 µM (inactive) | 18 µM (inactive) |  | 15.1 µM (inactive) | 19.1 µM (inactive) | 18.1 µM (inactive) | 15 µM (inactive) | 11.7 µM |  | 1.74 µM (inactive) | 21.3 µM (inactive) |  | 15.7 µM (inactive) | 17.7 µM (inactive) | 11.8 µM (inactive) |  |  |  |
| C(=N\c1ccc(-c2nc3ccccc3[nH]2)cc1)/c1cccs1 |  | > 100 µM (inactive) | > 100 µM (inactive) |  | > 100 µM (inactive) |  |  | > 100 µM (inactive) | > 100 µM (inactive) | 84.9 µM | > 100 µM (inactive) | 96.4 µM (inactive) | > 100 µM (inactive) | 56.6 µM (inactive) |  | 49.7 µM (inactive) |  |  | > 100 µM (inactive) | 51.4 µM (inactive) |
| CCOC(=O)NC(=O)c1cn(CCN2CCN(c3ncnc4[nH]cnc34)CC2)c(=O)[nH]c1=O | > 100 µM (inactive) | > 100 µM (inactive) | > 100 µM (inactive) | > 100 µM (inactive) | > 100 µM (inactive) | > 100 µM (inactive) |  | > 100 µM (inactive) | > 100 µM (inactive) | > 100 µM | > 100 µM (inactive) | > 100 µM (inactive) | > 100 µM (inactive) | > 100 µM (inactive) |  | > 100 µM (inactive) | > 100 µM (inactive) | > 100 µM (inactive) |  |  |
| CCOC(=O)n1ccc2c(C(=O)OC)c(C(=O)OC)cc(/C(=C/C(=O)OC)C(=O)OC)c21 |  | > 100 µM (inactive) | > 100 µM (inactive) |  | > 100 µM (inactive) |  |  | > 100 µM (inactive) | > 100 µM (inactive) | > 10 µM | > 100 µM (inactive) | > 100 µM (inactive) | > 100 µM (inactive) | 66.8 µM (inactive) |  | > 100 µM (inactive) |  |  | > 100 µM (inactive) | > 100 µM (inactive) |
